{"source": "paper PMC9662162", "about": "(Insect biochemistry and molecular biology, 2022)", "key": {"AnDar-D7L2": {"molecular_target": "AnDar-D7L2 (Anopheles darlingi, UniProt B6DDQ8)", "sequence (B6DDQ8 21-317 limits assumed)": "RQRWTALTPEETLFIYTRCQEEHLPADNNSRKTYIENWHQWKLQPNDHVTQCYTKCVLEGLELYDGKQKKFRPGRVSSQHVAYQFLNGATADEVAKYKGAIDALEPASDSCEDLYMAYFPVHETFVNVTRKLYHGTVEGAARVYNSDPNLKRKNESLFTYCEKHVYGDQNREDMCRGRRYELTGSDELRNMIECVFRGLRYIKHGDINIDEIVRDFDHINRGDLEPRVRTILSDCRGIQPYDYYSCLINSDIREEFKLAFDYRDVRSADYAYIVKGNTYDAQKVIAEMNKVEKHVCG", "test": "biochemical", "type": "binding", "conditions": "for fold difference in binding tightness, serotonin vs tryptamine: ratio of KD values"}, "An. gambiae D7L3": {"molecular_target": "An. gambiae D7L3 (Anopheles gambiae, UniProt A0A1S4HE90)", "sequence (A0A1S4HE90 27-354 limits assumed)": "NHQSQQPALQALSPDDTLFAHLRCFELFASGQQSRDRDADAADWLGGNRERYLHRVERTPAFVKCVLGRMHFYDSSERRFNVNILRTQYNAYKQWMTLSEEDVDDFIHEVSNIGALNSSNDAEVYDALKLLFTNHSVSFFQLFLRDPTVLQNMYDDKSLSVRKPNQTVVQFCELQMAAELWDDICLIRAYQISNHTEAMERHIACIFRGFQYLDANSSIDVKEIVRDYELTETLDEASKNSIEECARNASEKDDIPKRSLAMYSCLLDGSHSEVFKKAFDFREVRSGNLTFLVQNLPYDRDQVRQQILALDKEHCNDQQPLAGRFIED", "test": "biochemical", "type": "binding"}, "AnAtr-D7L1": {"molecular_target": "T1, AnAtr-D7L1 (Anopheles atroparvus, UniProt A0A182IRF8)", "T1 sequence (A0A182IRF8 24-316)": "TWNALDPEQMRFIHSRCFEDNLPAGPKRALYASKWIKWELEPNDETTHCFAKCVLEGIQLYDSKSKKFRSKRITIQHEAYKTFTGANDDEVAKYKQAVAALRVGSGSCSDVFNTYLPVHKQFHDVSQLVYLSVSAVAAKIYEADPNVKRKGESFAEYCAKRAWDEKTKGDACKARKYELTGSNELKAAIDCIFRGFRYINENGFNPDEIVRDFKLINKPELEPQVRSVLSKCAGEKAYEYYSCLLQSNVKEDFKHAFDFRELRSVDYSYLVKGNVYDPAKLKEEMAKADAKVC", "test": "ITC ligand binding to recombinant AnAtr-D7L1", "conditions": "for binding observed by ITC (in words): 30°C, 4 μM protein, 40 μM ligand"}, "Platelet-rich plasma": {"tested_on": "Platelet-rich plasma", "test": "Platelet aggregation assay in platelet-rich plasma", "type": "cell-based, human", "conditions": "protein 0.6, 2 and 6 μM"}, "AeD7S1": {"molecular_target": "T2, AeD7S1 (Aedes aegypti, UniProt Q8T9T4)", "T2 sequence (Q8T9T4 22-148)": "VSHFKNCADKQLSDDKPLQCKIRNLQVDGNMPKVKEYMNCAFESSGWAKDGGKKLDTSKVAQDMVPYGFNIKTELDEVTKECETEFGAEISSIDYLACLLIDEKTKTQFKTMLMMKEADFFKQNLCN", "test": "ITC serotonin binding to recombinant AeD7S1", "conditions": "30°C, 4 μM protein, 40 μM serotonin"}, "D7CQS1": {"molecular_target": "T3, D7CQS1 (Culex quinquefasciatus, UniProt Q6TS00)", "T3 sequence (Q6TS00 19-161)": "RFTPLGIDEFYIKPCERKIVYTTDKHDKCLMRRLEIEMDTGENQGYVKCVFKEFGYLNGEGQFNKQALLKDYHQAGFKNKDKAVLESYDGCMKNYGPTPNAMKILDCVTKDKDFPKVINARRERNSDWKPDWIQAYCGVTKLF", "test": "ITC serotonin binding to recombinant D7CQS1", "conditions": "30°C, 4 μM protein, 40 μM serotonin"}, "AnSt-D7L1": {"tested_on": "AnSt-D7L1", "conditions": "ref Alvarenga et al., 2010; cited from earlier work"}}, "note": "Read-outs that look alike come from different tables or passages of the source.", "data": [{"molecule": "CNC[C@H](O)c1ccc(O)c(O)c1", "note": "[epinephrine]", "values": [{"measurement": "binding observed by ITC (in words)", "setting": "AnDar-D7L2", "result": "No detectable binding"}]}, {"molecule": "NCC(O)c1ccc(O)cc1", "note": "(racemic) [octopamine, (±)-octopamine]", "values": [{"measurement": "binding observed by ITC (in words)", "setting": "AnDar-D7L2; ITC, 30°C", "result": "measurable"}]}, {"molecule": "CCCCC/C=C\\C\\C=C/C=C/C=C/[C@@H](SC[C@H](N)C(=O)O)[C@@H](O)CCCC(=O)O", "note": "[LTE4]", "values": [{"measurement": "binding observed by ITC (in words)", "setting": "AnDar-D7L2", "result": "high affinity"}]}, {"molecule": "NCCc1c[nH]cn1", "note": "[histamine]", "values": [{"measurement": "binding observed by ITC (in words)", "setting": "AnDar-D7L2", "result": "No detectable binding"}, {"measurement": "Kd", "setting": "An. gambiae D7L3", "result": 1.53, "unit": "µM"}]}, {"molecule": "CCCCC[C@H](O)/C=C/[C@@H]1[C@@H](C/C=C\\CCCC(=O)O)[C@@H](O)C[C@H]1O", "note": "[PGF2α]", "values": [{"measurement": "binding observed by ITC (in words)", "setting": "AnAtr-D7L1", "result": "No binding was detected"}]}, {"molecule": "CCCCC/C=C\\C[C@@H](O)/C=C/C=C/C=C\\[C@@H](O)CCCC(=O)O", "note": "[LTB4]", "values": [{"measurement": "binding observed by ITC (in words)", "setting": "AnDar-D7L2", "result": "unable to bind"}, {"measurement": "binding observed by ITC (in words)", "setting": "AnAtr-D7L1", "result": "No binding was detected"}]}, {"molecule": "CCCCC/C=C\\C\\C=C/C=C/C=C/[C@@H](SC[C@H](NC(=O)CC[C@H](N)C(=O)O)C(=O)NCC(=O)O)[C@@H](O)CCCC(=O)O", "note": "[LTC4]", "values": [{"measurement": "binding observed by ITC (in words)", "setting": "AnDar-D7L2", "result": "high affinity"}]}, {"molecule": "NCCc1ccc(O)c(O)c1", "note": "[dopamine]", "values": [{"measurement": "binding observed by ITC (in words)", "setting": "AnDar-D7L2", "result": "measurable"}]}, {"molecule": "CCCCC/C=C\\C\\C=C/C=C/C=C/[C@@H](SC[C@H](N)C(=O)NCC(=O)O)[C@@H](O)CCCC(=O)O", "note": "[LTD4]", "values": [{"measurement": "binding observed by ITC (in words)", "setting": "AnDar-D7L2", "result": "high affinity"}]}, {"molecule": "NCCc1c[nH]c2ccccc12", "note": "[tryptamine]", "values": [{"measurement": "Kd", "setting": "AnDar-D7L2", "result": 0.518, "unit": "µM"}, {"measurement": "fold difference in binding tightness, serotonin vs tryptamine", "setting": "AnDar-D7L2; ITC", "result": 30, "unit": "fold"}, {"measurement": "binding observed by ITC (in words)", "setting": "AnAtr-D7L1", "result": "equally high affinity"}]}, {"molecule": "AnDar-D7L2: recombinant two-domain D7 long form salivary protein from Anopheles darlingi (EU934268.1)", "values": [{"measurement": "effect on ADP-induced platelet aggregation", "setting": "Platelet-rich plasma; agonist ADP", "result": "did not inhibit"}, {"measurement": "effect on platelet aggregation induced by U46619", "setting": "Platelet-rich plasma; agonist U46619", "result": "inhibits"}, {"measurement": "effect on platelet aggregation induced by arachidonic acid (AA)", "setting": "Platelet-rich plasma; agonist arachidonic acid", "result": "inhibits"}, {"measurement": "effect on epinephrine-induced platelet aggregation", "setting": "Platelet-rich plasma; agonist epinephrine", "result": "did not inhibit"}, {"measurement": "effect on platelet aggregation induced by collagen", "setting": "Platelet-rich plasma; collagen at low concentrations, 1 min preincubation", "result": "inhibits"}]}, {"molecule": "Nc1ncnc2c1ncn2[C@@H]1O[C@H](COP(=O)(O)OP(=O)(O)O)[C@@H](O)[C@H]1O", "note": "[ADP]", "values": [{"measurement": "binding observed by ITC (in words)", "setting": "AnDar-D7L2; ITC, 30°C", "result": "inability to bind"}, {"measurement": "binding observed by ITC (in words)", "setting": "An. gambiae D7L3; ITC, 30°C, 4 μM protein, 40 μM ligand", "result": "none"}]}, {"molecule": "CCCCC[C@H](O)/C=C/C=C\\C/C=C\\C/C=C\\CCCC(=O)O", "note": "[15-HETE]", "values": [{"measurement": "binding observed by ITC (in words)", "setting": "AnAtr-D7L1", "result": "No binding was detected"}]}, {"molecule": "NC[C@H](O)c1ccc(O)c(O)c1", "note": "[norepinephrine, L(+)-norepinephrine]", "values": [{"measurement": "binding observed by ITC (in words)", "setting": "AnDar-D7L2; ITC, 30°C", "result": "measurable"}, {"measurement": "Kd", "setting": "An. gambiae D7L3", "result": 2.53, "unit": "µM"}]}, {"molecule": "NCCc1c[nH]c2ccc(O)cc12", "note": "[serotonin]", "values": [{"measurement": "Kd", "setting": "AnDar-D7L2", "result": 0.017, "unit": "µM"}, {"measurement": "fold difference in binding tightness, serotonin vs tryptamine", "setting": "AnDar-D7L2; ITC", "result": 30, "unit": "fold"}, {"measurement": "Kd", "setting": "AnAtr-D7L1", "result": "~0.003", "unit": "µM"}, {"measurement": "serotonin binding by ITC (in words)", "setting": "AeD7S1", "result": "Lack of serotonin binding"}, {"measurement": "serotonin binding by ITC (in words)", "setting": "D7CQS1", "result": "Lack of serotonin binding"}, {"measurement": "Kd", "setting": "An. gambiae D7L3", "result": 0.022, "unit": "µM"}, {"measurement": "binding (in words)", "setting": "AnSt-D7L1", "result": "does not bind"}]}, {"molecule": "CCCCC[C@H](O)/C=C/[C@@H]1[C@@H](C/C=C\\CCCC(=O)O)[C@H]2CO[C@@H]1C2", "note": "[U46619]", "values": [{"measurement": "binding observed by ITC (in words)", "setting": "AnDar-D7L2", "result": "high affinity"}, {"measurement": "binding observed by ITC (in words)", "setting": "AnAtr-D7L1", "result": "does not bind"}, {"measurement": "binding (in words)", "setting": "AnSt-D7L1", "result": "ability to bind"}]}]}
